From patent publication US20210403465A1, “QUINAZOLINYL-INDAZOLE DERIVATIVES AND THEIR USE AS INHIBITORS OF HUMAN IMMUNODEFICIENCY VIRUS REPLICATION” (ViiV HEALTHCARE UK (NO.5) LIMITED, priority 2018, published 2021)

What was measured:
[1] = test system: recombinant NL4-3 virus (Renilla luciferase) in MT-2 cells; experiment: HIV cell culture assay (antiviral activity, luciferase readout in MT-2 cells); format: cell-based; conditions: NL43
Method: HIV cell culture assay—MT-2 cells, 293T cells and the proviral DNA clone of NL4-3 virus were obtained from the NIH AIDS Research and Reference Reagent Program. MT-2 cells were propagated in RPMI 1640 media supplemented with 10% heat inactivated fetal bovine serum (FBS), […]. The 293T cells were propagated in DMEM media supplemented with 10% heat inactivated FBS, […]. A recombinant NL4-3 proviral clone, in which a section of the nef gene was replaced with the Renilla luciferase gene, was used to make the reference virus used in these studies. The recombinant virus was prepared through transfection of the recombinant NL4-3 proviral clone into 293T cells using Transit-293 Transfection Reagent from Mirus Bio LLC (Madison, Wis.). Supernatant was harvested after 2-3 days and the amount of virus present was titered in MT-2 cells using luciferase enzyme activity as a marker by measuring luciferase enzyme activity. Luciferase was quantitated using the EnduRen Live Cell Substrate from Promega (Madison, Wis.). Antiviral activities of compounds toward the recombinant virus were quantified by measuring luciferase activity in MT-2 cells infected for 4-5 days with the recombinant virus in the presence of serial dilutions of the compound.
The 50% effective concentration (EC50) was calculated by using the exponential form of the median effect equation where (Fa)=1/[1+(ED50/drug conc.)m] (Johnson V A, Byington R T. Infectivity Assay. In Techniques in HIV Research. ed. Aldovini A, Walker B D. 71-76. New York: Stockton Press. 1990). The 50% inhibitory concentration (EC50) was calculated by using the exponential form of the median effect equation where percent inhibition=1/[1+(EC50/drug concentration)m], where m is a parameter that reflects the slope of the concentration-response curve.

[2] = Compound cytotoxicity, XTT-based colorimetric assay; format: cell-based; conditions: human; uninfected MT2 cells, day 4, XTT
Method: Compound cytotoxicity and the corresponding CC50 values were determined using the same protocol as described in the antiviral assay except that uninfected cells were used. Cytotoxicity was assessed on day 4 in uninfected MT2 cells by using a XTT (2,3-bis[2-Methoxy-4-nitro-5-sulfophenyl]-2H-tetrazolium-5-carboxyanilide inner salt)-based colorimetric assay (Sigma-Aldrich, St Louis, Mo.).

Cn1nc(NS(C)(=O)=O)c2c(Cl)ccc(-n3c([C@H](Cc4cc(F)cc(F)c4)NC(=O)Cn4nc(C(F)F)c5c4C(F)(F)[C@@H]4C[C@H]54)nc4cc(OCC5CCCC5)ccc4c3=O)c21 (atropisomer, axis not shown; (P)) [Example 2, N—((S)-1-((3P)-3-(4-chloro-1-methyl-3-(methylsulfonamido)-1H-indazol-7-yl)-7-(cyclopentylmethoxy)-4-oxo-3,4-dihydroquinazolin-2-yl)-2-(3,5-difluorophenyl)ethyl)-2-((3bS,4aR)-3-(difluoromethyl)-5,5-difluoro-3b,4,4a,5-tetrahydro-1H-cyclopropa[3,4]cyclopenta[1,2-c]pyrazol-1-yl)acetamide]
EC50 [1]: 0.18 nM | CC50 at 4 days [2]: > 1000 nM

Cn1nc(NS(C)(=O)=O)c2c(Cl)ccc(-n3c([C@H](Cc4cc(F)cc(F)c4)NC(=O)Cn4nc(C(F)F)c5c4C(F)(F)[C@@H]4C[C@H]54)nc4cc(OCC5CCCCC5)ccc4c3=O)c21 (atropisomer, axis not shown; (P)) [Example 3, N—((S)-1-((3P)-3-(4-chloro-1-methyl-3-(methylsulfonamido)-1H-indazol-7-yl)-7-(cyclohexylmethoxy)-4-oxo-3,4-dihydroquinazolin-2-yl)-2-(3,5-difluorophenyl)ethyl)-2-((3bS,4aR)-3-(difluoromethyl)-5,5-difluoro-3b,4,4a,5-tetrahydro-1H-cyclopropa[3,4]cyclopenta[1,2-c]pyrazol-1-yl)acetamide]
EC50 [1]: 0.47 nM | CC50 at 4 days [2]: > 1000 nM

Cn1nc(NS(C)(=O)=O)c2c(Cl)ccc(-n3c([C@H](Cc4cc(F)cc(F)c4)NC(=O)Cn4nc(C(F)F)c5c4C(F)(F)[C@@H]4C[C@H]54)nc4cc(OCCN5CCS(=O)(=O)CC5)ccc4c3=O)c21 (atropisomer, axis not shown; (P)) [Example 4, N—((S)-1-((3P)-3-(4-chloro-1-methyl-3-(methylsulfonamido)-1H-indazol-7-yl)-7-(2-(1,1-dioxidothiomorpholino)ethoxy)-4-oxo-3,4-dihydroquinazolin-2-yl)-2-(3,5-difluorophenyl)ethyl)-2-((3bS,4aR)-3-(difluoromethyl)-5,5-difluoro-3b,4,4a,5-tetrahydro-1H-cyclopropa[3,4]cyclopenta[1,2-c]pyrazol-1-yl)acetamide]
EC50 [1]: 0.08 nM | CC50 at 4 days [2]: > 1000 nM

Cn1nc(NS(C)(=O)=O)c2c(Cl)ccc(-n3c([C@H](Cc4cc(F)cc(F)c4)NC(=O)Cn4nc(C(F)F)c5c4C(F)(F)[C@@H]4C[C@H]54)nc4cc(OCCOc5ccccc5)ccc4c3=O)c21 (atropisomer, axis not shown; (P)) [Example 5, N—((S)-1-((3P)-3-(4-chloro-1-methyl-3-(methylsulfonamido)-1H-indazol-7-yl)-4-oxo-7-(2-phenoxyethoxy)-3,4-dihydroquinazolin-2-yl)-2-(3,5-difluorophenyl)ethyl)-2-((3bS,4aR)-3-(difluoromethyl)-5,5-difluoro-3b,4,4a,5-tetrahydro-1H-cyclopropa[3,4]cyclopenta[1,2-c]pyrazol-1-yl)acetamide]
EC50 [1]: 0.36 nM | CC50 at 4 days [2]: > 1000 nM

Cn1nc(NS(C)(=O)=O)c2c(Cl)ccc(-n3c([C@H](Cc4cc(F)cc(F)c4)NC(=O)Cn4nc(C(F)F)c5c4C(F)(F)[C@@H]4C[C@H]54)nc4cc(OCCC(C)(C)C)ccc4c3=O)c21 (atropisomer, axis not shown; (P)) [Example 6, N—((S)-1-((3P)-3-(4-chloro-1-methyl-3-(methylsulfonamido)-1H-indazol-7-yl)-7-(3,3-dimethylbutoxy)-4-oxo-3,4-dihydroquinazolin-2-yl)-2-(3,5-difluorophenyl)ethyl)-2-((3bS,4aR)-3-(difluoromethyl)-5,5-difluoro-3b,4,4a,5-tetrahydro-1H-cyclopropa[3,4]cyclopenta[1,2-c]pyrazol-1-yl)acetamide]
EC50 [1]: 0.18 nM | CC50 at 4 days [2]: > 1000 nM
